# Test results published in US20070099877A1, “N-aryl-thienopyrimidin-4-amines and analogs as activators of caspases and inducers of apoptosis and the use thereof” (Cytovia, Inc., priority 2005, published 2007).
# pEC50: −log10 of the molar value. Structures can show the parent of a compound that is named as a salt.
# System: human Burkitt's lymphoma cell line Namalwa
# Assay: Caspase cascade activation in Namalwa cells
# Assay type: cell-based
# Conditions: Burkitts lymphoma cell, 48 h, read-out: Caspase Activation Potency EC50 Namalwa
smiles,measurement,value
"COc1cc(Nc2ncnc3ccsc23)cc(OC)c1 [Example 12, N-(3,5-Dimethoxyphenyl)thieno[3,2-d]pyrimidin-4-amine hydrochloride]",pEC50,6.45
